We go through four molecules from patent US8754106B2, “Macrocyclic inhibitors of hepatitis C virus” (Tibotec Pharmaceuticals Ltd., priority 2005, dated 2014).

Series [1] in a line: Oral pharmacokinetics of Compound nr. 47 in rat with ritonavir boosting. In kind it is in vivo, Sprague-Dawley rats. As to conditions: single oral 10 mg/kg Compound nr. 47 in 50% PEG400/water, boosted with 10 mg/kg ritonavir about 30 minutes before, plasma. The procedure:
Oral pharmacokinetics of Compound nr. 47 in male and female Sprague-Dawley rats after a single dose at 10 mg/kg, using a formulation in 50% PEG400/water and the influence of “boosting” with 10 mg/kg ritonavir were investigated.
Four male and four female Sprague-Dawley (SD)-rats (approx. body weight 200-250 g) were randomly divided into 2 groups of 2 males and females each (boosted and non-boosted) based on body weight. […] The animals were fasted shortly before the trial. Drinking water remained available ad libitum.
Rats from the non-boosted group received a single oral 10 mg/kg dose of Compound nr. 47, formulated as a 3 mg/ml 50% PEG400/water at pH 8. Rats from the boosted group received a single oral dose of ritonavir, about 30 minutes before single oral dosing with 10 mg/kg of Compound nr. 47. The drug formulations were administered by oral gavage.
From each rat, a 0.5 ml blood sample was collected at 0.5 h, 1 h, 2 h, 4 h and 8 h after dosing. Plasma concentrations were determined using HPLC-MS. Results are shown in the table 2 below, expressed as fold change in pharmacokinetic parameter of the boosted group as compared to the non-boosted group.

The test system of series [2] is HCV replicons (Huh-Luc cells, NS3-NS5B regions of HCV type Ib). Nature of the series: Replicon assay (Huh-7 luc/neo cells, luciferase readout). As to conditions: three days incubation, luciferase activity. Format: cell-based. The text has this:
The compounds of formula (I) were examined for activity in the inhibition of HCV RNA replication in a cellular assay. […] The cellular assay was based on a bicistronic expression construct, as described by Lohmann et al. (1999) Science vol. 285 pp. 110-113 with modifications described by Krieger et al. (2001) Journal of Virology 75: 4614-4624, in a multi-target screening strategy. In essence, the method was as follows.
The assay utilized the stably transfected cell line Huh-7 luc/neo (hereafter referred to as Huh-Luc). This cell line harbors an RNA encoding a bicistronic expression construct comprising the wild type NS3-NS5B regions of HCV type Ib translated from an Internal Ribosome Entry Site (IRES) from encephalomyocarditis virus (EMCV), preceded by a reporter portion (FfL-luciferase), and a selectable marker portion (neo^R, neomycine phosphotransferase). The construct is bordered by 5′ and 3′ NTRs (non-translated regions) from HCV type Ib. Continued culture of the replicon cells in the presence of G418 (neo^R) is dependent on the replication of the HCV RNA. The stably transfected replicon cells that express HCV RNA, which replicates autonomously and to high levels, encoding inter alia luciferase, are used for screening the antiviral compounds.
The replicon cells were plated in 384 well plates in the presence of the test and control compounds which were added in various concentrations. Following an incubation of three days, HCV replication was measured by assaying luciferase activity (using standard luciferase assay substrates and reagents and a Perkin Elmer ViewLux™ ultraHTS microplate imager). Replicon cells in the control cultures have high luciferase expression in the absence of any inhibitor. The inhibitory activity of the compound on luciferase activity was monitored on the Huh-Luc cells, enabling a dose-response curve for each test compound.
In general terms: A replicon is a self-replicating genome or part of one, used to study replication in cells.

A further series concerns the target HCV NS3/4A protease (Hepatitis C virus genotype 1a (isolate H77) (HCV), UniProt P27958). Nature of the series: Inhibition assay (enzymatic assay), depsipeptide substrate hydrolysis. Format: biochemical. As to conditions: full-length NS3 protease 1 nM, 25 μM NS4A cofactor, 0.5 μM substrate, competitive inhibition model. The procedure:
[Landro, 1997 #Biochem 36 9340-9348]. […] The solutions were stored at −20° C. between measurements.
[Liu, 1999 Analytical Biochemistry 267 331-335].

Sequence of HCV NS3/4A protease (P27958 1027-1657): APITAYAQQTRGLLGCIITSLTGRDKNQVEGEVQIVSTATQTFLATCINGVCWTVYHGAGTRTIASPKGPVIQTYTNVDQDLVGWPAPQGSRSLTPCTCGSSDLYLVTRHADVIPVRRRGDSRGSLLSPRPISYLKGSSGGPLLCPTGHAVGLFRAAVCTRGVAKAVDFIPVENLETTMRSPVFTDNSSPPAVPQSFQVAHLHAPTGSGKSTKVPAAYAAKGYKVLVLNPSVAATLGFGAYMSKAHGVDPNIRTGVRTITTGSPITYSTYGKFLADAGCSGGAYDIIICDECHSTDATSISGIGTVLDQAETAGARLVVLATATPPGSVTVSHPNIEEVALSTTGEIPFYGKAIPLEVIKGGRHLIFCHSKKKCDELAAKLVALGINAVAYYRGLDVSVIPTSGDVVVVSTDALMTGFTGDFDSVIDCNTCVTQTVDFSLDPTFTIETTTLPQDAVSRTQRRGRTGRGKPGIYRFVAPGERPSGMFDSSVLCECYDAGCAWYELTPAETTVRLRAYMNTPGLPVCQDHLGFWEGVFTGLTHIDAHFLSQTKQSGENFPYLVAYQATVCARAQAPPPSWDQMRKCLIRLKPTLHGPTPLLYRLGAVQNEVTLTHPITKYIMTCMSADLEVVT

In the case of `COc1ccc2c(O[C@@H]3C[C@H]4C(=O)N[C@]5(C(=O)NS(=O)(=O)C6CC6)C[C@H]5/C=C\CCCCN(C)C(=O)[C@@H]4C3)cc(-c3nc(C(C)C)cs3)nc2c1C` [Compound 47, N-[17-[2-(4-isopropylthiazole-2-yl)-7-methoxy-8-methylquinolin-4-yloxy]-13-methyl-2,14-dioxo-3,13-diazatricyclo[13.3.0.0^4,6]octadec-7-ene-4-carbonyl](cyclopropyl)sulfonamide], the “Cmax, fold change of the boosted group as compared to the non-boosted group” value in series [1] is recorded as 2.2 fold.

Broadly, the EC50 is the concentration at which the effect is half-maximal. A high value points to weaker potency. `CCc1c(OC)ccc2c(O[C@@H]3C[C@H]4C(=O)N[C@]5(C(=O)O)C[C@H]5/C=C\CCCCN(C)C(=O)[C@@H]4C3)cc(-c3nc(C(C)C)cs3)nc12` [Compound 71] registered an EC50 in series [2] (Hepatitis C virus, Huh-7, 72 h) of 10 µM.

Broadly, the Ki is a dissociation constant, usually derived from enzyme kinetics or from competition with a known ligand. For the molecule `COc1ccc2c(O[C@H]3C[C@H]4C(=O)NCCCCC/C=C\[C@@H]5C[C@@]5(C(=O)O)NC(=O)[C@@H]4C3)cc(-c3nc(C(C)C)cs3)nc2c1C` [Compound 81], the affinity on HCV NS3/4A protease, expressed as Ki, was 1000 nM. The EC50 in series [2] (Hepatitis C virus, Huh-7, 72 h) came out at 10 µM.

“N-[[18-[2-[4-(isopropyl)thiazol-2-yl]-7-methoxy-8-methylquinolin-4-yloxy]-2,15-dioxo-3,14,16-triazatricyclo[14.3.0.0^4,6]nonadec-7-en-4-yl]carbonyl]-(cyclopropyl)sulfonamide [Compound 91]”: on HCV NS3/4A protease, the Ki was 0.05 nM. For the same molecule, the midpoint of the response in series [2], the EC50, lay at 0.00854 µM.
